Common to all, as to assay: MIC, 96-well microplate microdilution (Example 14)
What all share (assay type): cell-based
(In broth dilution the organism is exposed to a series of concentrations in liquid medium.)

The subject of assay [1] is L. monocytogenes (CIP 103575). The following applies: for MIC: Listeria monocytogenes, CIP103575, Table 5, read-out: Minimum inhibitory concentration (MIC). Here is the method:
(§1) The bacteriostatic properties of the derivatives are evaluated by measuring their minimum inhibitory concentration (MIC) on the bacteria tested. These measurements are made using the 96-well microplate microdilution method according to the conditions defined below. The minimum inhibitory concentrations (MIC) are tested on Gram-positive bacterial strains according to the recommendations of the “Clinical Laboratory Standards Institute” (Clinical-Laboratory-Standards-Institute, 6th ed. Approved standard M100-S17. CLSI, Wayne, Pa., 2007). The Gram-positive bacteria studied are as follows: L. monocytogenes (CIP 103575), E. faecalis (ATCC® 29212™) and S. aureus (ATCC® 292213 ™). The cultures studied, freshly isolated (after incubation on a blood agar at 37° C. for 18 h), are taken up in sterile water (10 mL) until obtaining a 0.5 McFarland (Mc) suspension i.e. 1 to 2×10^8 CFU (bacteria)/cm^3. The bacterial suspension was then diluted to obtain a final concentration of 5×10^5 CFU/cm3. Each well contains an identical quantity of Mueller-Hinton medium (a rich medium for bacterial culture) and bacteria with final 5×10^5 CFU/cm3. The test compounds of interest are solubilized in 2.5% of ethanol before being diluted to different concentrations two by two. On the multiwell plate, a first series has been planned comprising the culture medium without the test compound of interest. It corresponds to the growth control (control well). These controls serve as reference for comparing bacterial growth with that of the subsequent wells comprising different concentrations of the test compound of interest. The second series of wells comprises the mother solution for the test compound of interest for a concentration in the wells of 4 mM. Each series of wells was diluted two by two until the last series for a final concentration of 0.003 mM. Each concentration is duplicated in the same plate. The plate is incubated for 18 h at 37° C. […] If there is antibacterial activity, the bacterial growth is inhibited, which means that no turbidity or bacterial residue is present.

In another assay the test system is S. aureus (ATCC 292213). The following applies: for MIC: Staphylococcus aureus, ATCC292213, Table 5, read-out: Minimum inhibitory concentration (MIC). The procedure:
as §1

The test system of another assay is E. faecalis (ATCC 29212). The following applies: Enterococcus faecalis, ATCC29212, Table 5, read-out: Minimum inhibitory concentration (MIC). The procedure: as §1
[2] abbreviates: Table 7 comparison with reference products.

The values that follow come from patent US10653664B2, “Antibacterial compositions of mono-alkyl ethers of monoanhydro-hexitols and antibacterial methods using of the same” (TEREOS STARCH & SWEETENERS, priority 2014, dated 2020).

In brackets after ≈: the same amount, converted by molar mass.

In the case of `CCCCCOCC(O)[C@H]1OCC(O)C1O` (some centres unmarked) [Entry 1, (1,4)-sorbitan pentyl ethers], the MIC (in assay [1]; in the assay on S. aureus (ATCC 292213); in the assay on E. faecalis (ATCC 29212)) was above 4 mM throughout.
Take `CCCCCCOCC(O)[C@H]1OCC(O)C1O` (some centres unmarked) [Entry 2]: the MIC (in assay [1]; with S. aureus (ATCC 292213); in the assay on E. faecalis (ATCC 29212)) was above 4 mM in each case.
Turning to `CCCCCCCCOCC(O)[C@H]1OCC(O)C1O` (some centres unmarked) [Entry 3, Octyl-1,4-sorbitan], the MIC (in assay [1]; with S. aureus (ATCC 292213); in the assay with E. faecalis (ATCC 29212)) was above 4 mM each time.
Regarding `CCCCCCCCCCOCC(O)[C@H]1OCC(O)C1O` (some centres unmarked) [Entry 4, Decyl-1,4-sorbitan], the MIC (in assay [1]; in the assay with S. aureus (ATCC 292213); in the assay with E. faecalis (ATCC 29212)) was above 4 mM each time.
As for `CCCCCCCCCCCC(=O)OCC(O)CO` (centres unmarked) [ML, monolaurine, reference compound], the “Minimum inhibitory concentration (MIC)” value (in assay [1] (setting [2]); in the assay with S. aureus (ATCC 292213) (setting [2])) was 0.04 mM (≈ 11 µg/mL) each time.
